Tests used:
[1] = target: CDK2/Cyclin E1 full length (Homo sapiens (Human), UniProt P24941); test: CDK2/Cyclin E1 full length mobility shift assay; assay type: biochemical
Method: Cdk2/Cyclin E1 Full Length Mobility Shift Assay
Wild-type CDK2/wild-type full length Cyclin E1 enzyme complex was produced in-house (baculoviral expression, LJIC-2080/LJIC-2103) and phosphorylated by CDK7/Cyclin H1/Matl enzyme complex with CDK2:CDK7 ratio of 50:1 (concentration mg/mL) in the presence of 10 mM MgCl2 and 5 mM ATP at room temperature for one hour. […] The assay was initiated with the addition of ATP, following a fifteen minutes pre-incubation of enzyme and inhibitor at room temperature in the reaction mixture. The reaction was stopped after 45 minutes at room temperature by the addition of 50 μL of 80 mM EDTA.

GSK3β (H350L) = GSK3β (H350L) (Homo sapiens (Human), UniProt P49841); settings: read-out: GSK3β Ki
GSK3β (H350L), sequence (P49841 whole entry, stated change not applied): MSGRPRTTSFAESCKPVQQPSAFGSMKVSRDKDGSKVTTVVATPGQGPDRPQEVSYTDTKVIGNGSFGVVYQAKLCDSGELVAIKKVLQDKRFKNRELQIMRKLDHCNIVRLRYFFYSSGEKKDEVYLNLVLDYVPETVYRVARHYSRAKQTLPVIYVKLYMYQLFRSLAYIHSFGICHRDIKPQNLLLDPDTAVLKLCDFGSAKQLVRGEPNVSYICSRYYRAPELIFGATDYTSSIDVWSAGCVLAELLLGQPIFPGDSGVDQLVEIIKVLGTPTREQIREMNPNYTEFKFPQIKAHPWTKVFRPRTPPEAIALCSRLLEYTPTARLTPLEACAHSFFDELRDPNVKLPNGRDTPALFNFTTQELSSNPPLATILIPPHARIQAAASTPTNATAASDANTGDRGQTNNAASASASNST
Method: The assay was initiated with the addition of ATP, following 15 minutes pre-incubation of enzyme and inhibitor at room temperature in the reaction mixture. The reaction was stopped after 30 minutes at room temperature by the addition of 50 μL of 80 mM EDTA.

SMILES | Ki [1] | Ki (GSK3β (H350L))
COc1cc(CC(=O)Nc2cc([C@H]3CC[C@@H](OC(=O)NC(C)C)C3)[nH]n2)ccn1 [Example 276, (1R,3S)-3-(3-{[(2-methoxypyridin-4-yl)acetyl]amino}-1H-pyrazol-5-yl)cyclopentyl propan-2-ylcarbamate] | 0.64 nM | 33.1 nM
CC[C@H](C)NC(=O)O[C@@H]1CC[C@H](c2cc(NC(=O)Cc3ncc(OC)s3)n[nH]2)C1 [Example 353, (1R,3S)-3-(3-{[(5-methoxy-1,3-thiazol-2-yl)acetyl]amino}-1H-pyrazol-5-yl)cyclopentyl (2S)-butan-2-ylcarbamate] | 0.5 nM | 29.5 nM
Cn1cc(CC(=O)Nc2cc([C@H]3CC[C@@H](OC(=O)NC4(C)CCOCC4)C3)[nH]n2)cn1 [Example 506, (1R,3S)-3-(3-{[(1-methyl-1H-pyrazol-4-yl)acetyl]amino}-1H-pyrazol-5-yl)cyclopentyl (4-methyltetrahydro-2H-pyran-4-yl)carbamate] | 0.76 nM | 77.6 nM
Cc1cc(CC(=O)Nc2cc([C@H]3CC[C@@H](OC(=O)N4CCC4(C)C)C3)[nH]n2)on1 [Example 12, (1R,3S)-3-(3-{[(3-methyl-1,2-oxazol-5-yl)acetyl]amino}-1H-pyrazol-5-yl)cyclopentyl 2,2-dimethylazetidine-1-carboxylate] | 0.13 nM | 4.86 nM
Cc1cnc(CC(=O)Nc2cc([C@H]3CC[C@@H](OC(=O)N4CCC[C@@H]4C)C3)[nH]n2)o1 [Example 635, (1R,3S)-3-(3-{[(5-methyl-1,3-oxazol-2-yl)acetyl]amino}-1H-pyrazol-5-yl)cyclopentyl (2S)-2-methylpyrrolidine-1-carboxylate] | 0.53 nM | 16.3 nM
Cn1cc(CC(=O)Nc2cc([C@H]3CC[C@@H](OC(=O)NC4(C)CCC4)C3)[nH]n2)cn1 [Example 119] | 0.13 nM | 19.3 nM
CCCNC(=O)O[C@H]1CC[C@@H](c2cc(NC(=O)Cc3ccc(OCCN)cc3)n[nH]2)C1 [Example 198, (1S,3R)-3-[3-({[4-(2-aminoethoxy)phenyl]acetyl}amino)-1H-pyrazol-5-yl]cyclopentyl propylcarbamate] | 0.28 nM | 52.1 nM
CCCNC(=O)O[C@H]1CC[C@@H](c2cc(NC(=O)Cc3ccc(OC)nc3)n[nH]2)C1 [Example 21] | 0.25 nM | 4.2 nM
O=C(Cc1cc(F)cc(F)c1)Nc1cc([C@H]2CC[C@@H](OC(=O)NCC(F)F)C2)[nH]n1 [Example 253, (1R,3S)-3-(3-{[(3,5-difluorophenyl)acetyl]amino}-1H-pyrazol-5-yl)cyclopentyl (2,2-difluoroethyl)carbamate] | 1.26 nM | 28.8 nM
Cn1cc(CC(=O)Nc2cc([C@H]3CC[C@@H](OC(=O)NC(C)(C)C)C3)[nH]n2)cn1 [Example 112] | 0.15 nM | 40.2 nM
COc1ccc(CC(=O)Nc2cc([C@@H]3CC[C@H](OC(=O)N[C@H]4CC[C@H](O)CC4)C3)[nH]n2)nc1 [Example 557, (1S,3R)-3-(3-{[(5-methoxypyridin-2-yl)acetyl]amino}-1H-pyrazol-5-yl)cyclopentyl (trans-4-hydroxycyclohexyl)carbamate] | 1.01 nM | 2.6 nM
CCN(C)C(=O)O[C@@H]1CC[C@H](c2cc(NC(=O)Cc3ccnc(OC)c3)n[nH]2)C1 [Example 242, (1R,3S)-3-(3-{[(2-methoxypyridin-4-yl)acetyl]amino}-1H-pyrazol-5-yl)cyclopentyl ethyl(methyl)carbamate] | 0.81 nM | 9.7 nM
CC[C@H](C)NC(=O)O[C@@H]1CC[C@H](c2cc(NC(=O)Cc3cc(C)nn3C)n[nH]2)C1 [Example 338, (1R,3S)-3-(3-{[(1,3-dimethyl-1H-pyrazol-5-yl)acetyl]amino}-1H-pyrazol-5-yl)cyclopentyl (2S)-butan-2-ylcarbamate] | 1.58 nM | 94.4 nM
CCCNC(=O)O[C@@H]1CC[C@H](c2cc(NC(=O)Cc3ccno3)n[nH]2)C1 [Example 169, (1R,3S)-3-{3-[(1,2-oxazol-5-ylacetyl)amino]-1H-pyrazol-5-yl}cyclopentyl propylcarbamate] | 1.63 nM | 29.6 nM

Reference: patent US11014911B2, “CDK2 inhibitors” (Pfizer Inc., priority 2019, dated 2021)
